Data: publication PMC9252919, “Controlled masking and targeted release of redox-cycling ortho-quinones via a C–C bond-cleaving 1,6-elimination” (Nature Chemistry, 2022)
Entries after “also recorded” stand apart in the source; their conditions may differ. Where two headings read alike, the source gives them in different places.

How the values were obtained:
[1] = In vitro redox-cycling phenol red/horseradish peroxidase reporter assay; conditions: phenol red/HRP with DTT
Description: The in vitro redox-cycling capability of compounds was assessed by phenol red/horseradish peroxidase (HRP) assay by adaption of a previously described protocol. Briefly, stocks were prepared as follows: (1) DTT to a concentration of […] in PBS pH 7.4 buffer; (2) compound stocks in PBS pH 7.4 buffer to 3× the desired concentration by 1,000× dilution of DMSO stocks; (3) a stock of phenol red/HRP detection reagent containing 300 µg ml^−1 phenol red and 180 µg ml^−1 HRP enzyme in PBS pH 7.4 buffer; (4) a stock of 1 M NaOH in water; (5) a stock of 100 µM H2O2 in PBS prepared by addition of a 30% solution of H2O2 in water into 1,000 µl of PBS. Into each well of a 96-well clear flat-bottomed plate was then added 40 µl of compound stock in PBS followed by 40 µl of DTT stock, followed immediately by 40 µl of phenol red/HRP reagent. A positive control with 100 µM H2O2 added in place of compound was included. The plate was incubated in the dark at room temperature for 15 min. Following this, 20 µl of 1 M NaOH was added to each well to terminate the reaction. Absorbance was immediately measured at 610 nm (MiniMax i3x Imager, Molecular Devices). Absorbance of treated wells was normalized to control wells treated with PBS only (zero redox cycling).

AML cell line HL-60 = test: N-Acetyl cysteine cytotoxicity assay (trypan blue exclusion); format: cell-based; conditions: Homo sapiens, 96 h
Description: For assays involving cytotoxicity of β-lapachone derivatives with and without antioxidant N-acetyl cysteine, HL-60 cells were plated into 24-well plates at a concentration of 2.5 × 10^5 cells ml^−1 in 450 µl. To each well was then added 25 µl of drug diluted in PBS to obtain the correct in-plate drug concentration, and 25 µl of PBS or a stock of N-acetyl cysteine at 12 mM in PBS. DMSO was maintained at an in-plate concentration of 0.1%. After 96 h incubation, toxicity was assessed by counting of live cells using the trypan blue exclusion method with a Countess II Automated Cell Counter (ThermoFisher Scientific) according to the manufacturer’s instructions. Cell viability was determined by dividing the average live cell number of treated wells by the average live cell number for control wells treated with 0.1% DMSO. Viability for wells treated with N-acetyl cysteine was assessed by comparison with control wells treated with N-acetyl cysteine and 0.1% DMSO. IC50 values were calculated using GraphPad Prism 8 software.

recombinant human 5-LO = biological target: T1, recombinant human 5-LO (Homo sapiens, UniProt P09917); test: Cell-free activity assay for recombinant human 5-LO; format: biochemical
T1 construct: made in house; host or cells: Escherichia coli BL21
T1 sequence (P09917 1-674): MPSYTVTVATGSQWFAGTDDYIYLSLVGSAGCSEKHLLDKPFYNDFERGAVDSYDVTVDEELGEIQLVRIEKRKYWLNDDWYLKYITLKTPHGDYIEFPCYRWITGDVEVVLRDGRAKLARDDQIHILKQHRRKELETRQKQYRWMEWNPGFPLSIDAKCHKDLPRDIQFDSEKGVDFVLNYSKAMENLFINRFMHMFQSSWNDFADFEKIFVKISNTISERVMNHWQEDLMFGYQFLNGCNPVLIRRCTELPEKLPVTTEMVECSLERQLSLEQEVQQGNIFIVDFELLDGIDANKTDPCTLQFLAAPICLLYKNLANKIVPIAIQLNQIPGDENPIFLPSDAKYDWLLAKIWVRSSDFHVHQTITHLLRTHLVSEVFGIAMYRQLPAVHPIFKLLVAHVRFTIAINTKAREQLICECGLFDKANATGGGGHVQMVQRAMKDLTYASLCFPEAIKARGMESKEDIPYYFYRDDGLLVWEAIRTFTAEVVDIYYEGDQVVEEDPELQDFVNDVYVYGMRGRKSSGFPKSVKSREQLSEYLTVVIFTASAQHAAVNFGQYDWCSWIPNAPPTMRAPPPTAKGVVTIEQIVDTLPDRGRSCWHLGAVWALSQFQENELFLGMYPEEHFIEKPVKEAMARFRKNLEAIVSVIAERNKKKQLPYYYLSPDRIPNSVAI
Description: Escherichia coli (BL21) was transformed with pT3-5-LO plasmid, and recombinant 5-LO protein was expressed at 30 °C as described. Cells were lysed in 50 mM triethanolamine/HCl pH 8.0, 5 mM EDTA, 1 mM phenylmethanesulfonyl fluoride, soybean trypsin inhibitor (60 μg ml^−1) and lysozyme (1 mg ml^−1), homogenized by sonication (3 × 15 s) and centrifuged at 40,000g for 20 min at 4 °C. The 40,000g supernatant (S40) was applied to an ATP–agarose column to partially purify 5-LO as described. Aliquots of semipurified 5-LO (0.5 μg) were diluted with 1 ml ice-cold PBS containing 1 mM EDTA. Samples were preincubated with the test compound or vehicle (0.1% DMSO) with or without 1 mM DTT, as indicated. After 10 min at 4 °C, samples were prewarmed for 30 s at 37 °C, and 2 mM CaCl2 plus 20 μM arachidonic acid was added to start the formation of 5-LO products. After 10 min, the reaction was stopped by addition of 1 volume of ice-cold methanol, and the formed 5-LO products were analysed by reverse-phase HPLC as described. 5-LO products include the all-trans isomers of LTB4 (trLTB4 isomers) and 5(S)-hydroperoxy-6-trans-8,11,14-cis-eicosatetraenoic acid and its corresponding alcohol 5(S)-hydroxy-6-trans-8,11,14-cis-eicosatetraenoic acid.

ovine blood = test: Methaemoglobin analysis in ovine blood; parameters: species or system sheep; conditions: for methaemoglobin formation: in vitro ovine blood model, 1 h incubation
Description: Defibrinated Oxoid sheep’s blood (ThermoScientific) was diluted to a 5% v/v suspension in PBS pH 7.4. In a 96-well microtitre plate, 150 µl of blood suspension was added to 50 µl of serially diluted compound in PBS containing a 4× stock of each compound of interest. Serial dilution of compounds from DMSO stocks into PBS was performed to achieve an in-plate DMSO concentration of 0.1%. PBS buffer alone was used as a negative control. The plate was incubated for the specified time at 37 °C. The plate was then centrifuged at 3,500 r.p.m. for 5 min. The supernatant was removed and cells lysed by resuspension in 100 µl of a solution of Triton-X-100 (1%) in PBS. Following this, 80 µl of lysed cell contents were transferred to a second microtitre plate for ultraviolet measurement. Ultraviolet absorbance was measured immediately at 630 nm (MiniMax i3x Imager, Molecular Devices). Methaemoglobin increase was determined by A630−A6300/A6300×100 , where A630 is the absorbance of the test well at 630 nm, and A6300 is the absorbance of the negative control at 630 nm.

[2] = with ROS quencher NAC (600 µM), read-out: IC50, toxicity to HL-60 with NAC
[3] = without NAC, read-out: IC50, toxicity to HL-60 without NAC
[4] = without DTT, read-out: IC50, 5-LO inhibition without DTT

Row | SMILES | concentration above which redox activity saturates the assay [1] | IC50 (AML cell line HL-60; [2]) | IC50 (AML cell line HL-60; [3]) | IC50 (recombinant human 5-LO; [4]) | lowest dose concentration with detectable methaemoglobin formation (ovine blood; after 1 h of incubation) | methaemoglobin formation (ovine blood) | in vitro redox activity ([1]; up to 25 μM) | IC50 (recombinant human 5-LO; with DTT (1 mM), read-out: IC50, 5-LO inhibition with DTT)
1 | CC1(C)CCC2=C(O1)c1ccccc1C(=O)C2=O [Compound 1, β-lapachone, reference compound] | above 10 μM | 1.18 ± 0.18 µM | 0.47 ± 0.26 µM | > 30 µM | 10 µM | dose-dependent methaemoglobin formation |  | 
2 | CC1(C)CCC2=C(O1)c1ccccc1C(O)(Cc1ccccc1)C2=O (stereo not drawn) [Compound 24, benzyl β-lapa-ketol] |  | 10.5 ± 0.9 µM | 13.6 ± 1.3 µM | 8 ± 2.5 µM |  | did not occur | non-redox active; also recorded: no measurable redox activity | 10.4 ± 4.1 µM
